Reference: patent US12503471B2, “Triazatricycle compounds for the treatment of autoimmune disease” (Hoffmann-La Roche Inc., priority 2019, dated 2025)
pIC50: −log10 of the molar value.

Tests used:
[1] = Human microsomal stability assay; type: in vitro ADME; details: human liver microsomes, 1 μM test compound, 0.5 mg/mL protein, 37° C., pH 7.4
Protocol: Human Microsomal Stability Assay
Human liver microsomes (Cat.NO.: 452117, Corning, USA) were preincubated with test compound for 10 minutes at 37° C. in 100 mM potassium phosphate buffer, pH 7.4. The reactions were initiated by adding NADPH regenerating system. The final incubation mixtures contained 1 μM test compound, 0.5 mg/mL liver microsomal protein, 1 mM MgCl2, 1 mM NADP, 1 unit/mL isocitric dehydrogenase and 6 mM isocitric acid in 100 mM potassium phosphate buffer, pH 7.4. After incubation times of 0, 3, 6, 9, 15 and 30 minutes at 37° C., 300 μL of cold ACN (including internal standard) was added to 100 μL incubation mixture to terminate the reaction. Following precipitation and centrifugation, 100 uL supernatant will be taken out and added 300 uL water. The amount of compound remaining in the samples was determined by LC-MS/MS. Controls of no NADPH regenerating system at zero and 30 minutes were also prepared and analyzed. The results were categorized as: low (7.0 mL/min/kg), medium (7.0-16.2 mL/min/kg) and high (16.2-23.2 mL/min/kg).

[2] = biological target: T1, human TLR7 (Homo sapiens, UniProt Q9NYK1); assay: HEK293-Blue-hTLR-7 cells assay; type: cell-based; details: HEK293-Blue-hTLR7 cells, R848 stimulation, 20 hrs, SEAP reporter; read-out: HEK/hTLR7 IC50
T1 construct: host or cells: HEK293 (HEK-Blue hTLR7)
T1 sequence (Q9NYK1 27-1049): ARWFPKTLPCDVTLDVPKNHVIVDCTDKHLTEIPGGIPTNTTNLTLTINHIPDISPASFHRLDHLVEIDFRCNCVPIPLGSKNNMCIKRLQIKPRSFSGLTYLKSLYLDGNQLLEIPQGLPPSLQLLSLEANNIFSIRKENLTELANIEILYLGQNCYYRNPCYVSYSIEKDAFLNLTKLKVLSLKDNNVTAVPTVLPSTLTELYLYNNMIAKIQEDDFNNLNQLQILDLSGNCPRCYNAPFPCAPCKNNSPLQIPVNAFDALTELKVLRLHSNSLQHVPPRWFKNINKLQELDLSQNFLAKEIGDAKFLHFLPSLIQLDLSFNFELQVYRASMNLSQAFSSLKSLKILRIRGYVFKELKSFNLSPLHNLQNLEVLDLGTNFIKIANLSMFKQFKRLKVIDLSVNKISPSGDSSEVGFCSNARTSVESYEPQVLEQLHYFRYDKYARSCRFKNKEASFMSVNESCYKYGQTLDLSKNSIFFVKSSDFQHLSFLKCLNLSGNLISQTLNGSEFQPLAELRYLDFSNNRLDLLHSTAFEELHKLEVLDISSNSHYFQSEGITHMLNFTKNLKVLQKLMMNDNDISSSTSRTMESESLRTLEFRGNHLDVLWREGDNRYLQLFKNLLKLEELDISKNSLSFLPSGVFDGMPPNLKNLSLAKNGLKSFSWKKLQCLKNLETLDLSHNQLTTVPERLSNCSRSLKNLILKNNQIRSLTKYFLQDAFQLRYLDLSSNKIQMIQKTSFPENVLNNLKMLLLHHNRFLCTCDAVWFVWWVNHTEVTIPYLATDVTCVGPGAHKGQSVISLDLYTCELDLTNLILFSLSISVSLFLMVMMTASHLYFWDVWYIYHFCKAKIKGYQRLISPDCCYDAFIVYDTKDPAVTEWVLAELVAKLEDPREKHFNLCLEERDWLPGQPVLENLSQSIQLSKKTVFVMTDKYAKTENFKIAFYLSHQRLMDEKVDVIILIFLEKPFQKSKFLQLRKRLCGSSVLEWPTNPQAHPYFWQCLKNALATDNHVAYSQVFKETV
Text: HEK293-Blue-hTLR-7 Cells Assay:
A stable HEK293-Blue-hTLR-7 cell line was purchased from InvivoGen (Cat. #: hkb-htlr7, San Diego, Calif., USA). These cells were originally designed for studying the stimulation of human TLR7 by monitoring the activation of NF-κB. A SEAP (secreted embryonic alkaline phosphatase) reporter gene was placed under the control of the IFN-β minimal promoter fused to five NF-κB and AP-1-binding sites. The SEAP was induced by activating NF-κB and AP-1 via stimulating HEK-Blue hTLR7 cells with TLR7 ligands. Therefore the reporter expression was declined by TLR7 antagonist under the stimulation of a ligand, such as R848 (Resiquimod), for incubation of 20 hrs. The cell culture supernatant SEAP reporter activity was determined using QUANTI-Blue™ kit (Cat. #: rep-qbl, Invivogen, San Diego, Ca, USA) at a wavelength of 640 nm, a detection medium that turns purple or blue in the presence of alkaline phosphatase.
HEK293-Blue-hTLR7 cells were incubated at a density of 250,000˜450,000 cells/mL in a volume of 170 μL in a 96-well plate in Dulbecco's Modified Eagle's medium (DMEM) containing 4.5 g/L glucose, 50 U/mL penicillin, […], […], 2 mM L-glutamine, 10% (v/v) heat-inactivated fetal bovine serum with addition of 20 μL test compound in a serial dilution in the presence of final DMSO at 1% and 10 μL of 20 uM R848 in above DMEM, perform incubation under 37° C. in a CO2 incubator for 20 hrs. Then 20 μL of the supernatant from each well was incubated with 180 μL Quanti-blue substrate solution at 37° C. for 2 hrs and the absorbance was read at 620-655 nm using a spectrophotometer. The signaling pathway that TLR7 activation leads to downstream NF-κB activation has been widely accepted, and therefore similar reporter assay was modified for evaluating TLR7 antagonist.

Row | SMILES | CL (h) [1] [mL/min/kg] | pIC50 [2]
1 | [2H]c1ccc2c(N3C[C@@H](C)N4Cc5nc(N6CCC7(CNC7)C6)ccc5[C@H]4C3)ccc(C#N)c2n1 [Example 9, 2-Deuterio-5-[(2S,6R)-11-(2,6-diazaspiro[3.4]octan-6-yl)-6-methyl-4,7,10-triazatricyclo[7.4.0.02,7]trideca-1(9),10,12-trien-4-yl]quinoline-8-carbonitrile] | 6.2 | 8.19
2 | [2H]c1ccc2c(N3C[C@@H](C)N4Cc5nc(N6CC[C@@H](N)[C@H](OC)C6)ccc5[C@H]4C3)ccc(C#N)c2n1 [Example 11, 5-[(2S,6R)-11-[(3R,4R)-4-amino-3-methoxy-1-piperidyl]-6-methyl-4,7,10-triazatricyclo[7.4.0.02,7]trideca-1(9),10,12-trien-4-yl]-2-deuterio-quinoline-8-carbonitrile] | 7.1 | 8.43
3 | [2H]c1ccc2c(N3C[C@@H](C)N4Cc5nc(N6CC[C@@](C)(N)C6)ccc5[C@H]4C3)ccc(C#N)c2n1 [Example 7, 5-[(2S,6R)-11-[(3R)-3-amino-3-methyl-pyrrolidin-1-yl]-6-methyl-4,7,10-triazatricyclo[7.4.0.02,7]trideca-1(9),10,12-trien-4-yl]-2-deuterio-quinoline-8-carbonitrile] | 6.2 | 8.55
4 | CC1(N)CCN(c2ccc3c(n2)CN2CCN(c4ccc(C#N)c5ncccc45)C[C@@H]32)CC1 [Example 4A, 5-[(2R)-11-(4-amino-4-methyl-1-piperidyl)-4,7,10-triazatricyclo[7.4.0.02,7]trideca-1(9),10,12-trien-4-yl]quinoline-8-carbonitrile] | 8.9 | 8.06
5 | [2H]c1ccc2c(N3C[C@@H](C)N4Cc5nc(N6C[C@@H]7C[C@H]6CN7)ccc5[C@H]4C3)ccc(C#N)c2n1 [Example 16, 2-Deuterio-5-[(2S,6R)-11-[(1S,4S)-2,5-diazabicyclo[2.2.1]heptan-2-yl]-6-methyl-4,7,10-triazatricyclo[7.4.0.02,7]trideca-1(9),10,12-trien-4-yl]quinoline-8-carbonitrile] | 6.2 | 8.77
6 | [2H]c1ccc2c(N3C[C@@H](C)N4Cc5nc(N6CC[C@H](N)[C@H](OC)C6)ccc5[C@H]4C3)ccc(C#N)c2n1 [Example 13, 5-[(2S,6R)-11-[(3R,4S)-4-amino-3-methoxy-1-piperidyl]-6-methyl-4,7,10-triazatricyclo[7.4.0.02,7]trideca-1(9),10,12-trien-4-yl]-2-deuterio-quinoline-8-carbonitrile] | 9.4 | 8.77
7 | [2H]c1ccc2c(N3C[C@@H](C)N4Cc5nc(OC6CCNCC6)ccc5[C@H]4C3)ccc(C#N)c2n1 [Example 24, 2-Deuterio-5-[(2S,6R)-6-methyl-11-(4-piperidyloxy)-4,7,10-triazatricyclo[7.4.0.02,7]trideca-1(9),10,12-trien-4-yl]quinoline-8-carbonitrile] | 6.2 | 9.00
